Laboratory results published in US12162888B2, “Carboxamides as ubiquitin-specific protease inhibitors” (Valo Early Discovery, Inc., priority 2018, dated 2024).

Target: T1, USP28 (His-tagged USP28-FL-mammalian) (Homo sapiens, UniProt Q96RU2)
T1 construct: Expression of USP28 (1-1077)-TEV-6*His (pTT5 vector) was carried out in Expi293f cells; made in house; host or cells: Expi293F cells (pTT5 vector)
T1 sequence (Q96RU2 1-1077): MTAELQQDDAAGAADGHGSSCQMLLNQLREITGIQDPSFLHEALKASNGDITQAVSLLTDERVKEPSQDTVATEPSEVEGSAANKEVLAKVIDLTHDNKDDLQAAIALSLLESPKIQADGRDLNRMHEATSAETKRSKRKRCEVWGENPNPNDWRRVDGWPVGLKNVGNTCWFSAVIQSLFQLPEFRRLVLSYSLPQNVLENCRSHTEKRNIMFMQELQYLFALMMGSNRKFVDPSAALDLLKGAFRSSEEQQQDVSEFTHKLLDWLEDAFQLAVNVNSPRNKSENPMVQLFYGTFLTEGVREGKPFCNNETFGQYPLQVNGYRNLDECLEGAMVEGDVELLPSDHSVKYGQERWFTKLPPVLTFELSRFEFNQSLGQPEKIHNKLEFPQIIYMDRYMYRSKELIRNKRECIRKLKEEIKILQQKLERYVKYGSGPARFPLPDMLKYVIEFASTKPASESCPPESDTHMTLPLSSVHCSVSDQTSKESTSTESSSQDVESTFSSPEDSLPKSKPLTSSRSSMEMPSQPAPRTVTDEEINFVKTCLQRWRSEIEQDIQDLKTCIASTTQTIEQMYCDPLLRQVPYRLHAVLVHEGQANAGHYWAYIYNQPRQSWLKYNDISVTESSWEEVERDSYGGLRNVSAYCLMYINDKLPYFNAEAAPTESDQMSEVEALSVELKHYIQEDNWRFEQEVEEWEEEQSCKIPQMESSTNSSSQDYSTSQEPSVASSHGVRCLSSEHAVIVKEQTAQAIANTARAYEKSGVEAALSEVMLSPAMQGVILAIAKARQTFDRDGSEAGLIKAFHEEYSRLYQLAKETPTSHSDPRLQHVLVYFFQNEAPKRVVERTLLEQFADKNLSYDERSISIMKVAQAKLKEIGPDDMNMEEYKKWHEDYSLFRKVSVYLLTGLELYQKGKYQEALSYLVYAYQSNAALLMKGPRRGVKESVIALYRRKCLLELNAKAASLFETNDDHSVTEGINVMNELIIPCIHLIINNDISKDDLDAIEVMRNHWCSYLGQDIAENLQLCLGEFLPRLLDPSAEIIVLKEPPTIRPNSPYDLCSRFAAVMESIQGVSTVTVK
Assay: Ubiquitin-Rhodamine 110 Assay for USP28 Activity, Example A-1(a)
Assay type: biochemical
Conditions: biochemical IC50 range, Ubiquitin-Rhodamine 110 assay, read-out: USP28 A-1(a)
Summary of the method: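 IC50s were fitted with a 4-parameter logistic to percent inhibition relative to no-enzyme and DMSO controls, using Rhodamine 110 fluorescence (485/535 nm) released from 25 nM Ub-Rh110. The enzyme was Expi293F-expressed USP28-FL-His at […], preincubated 30 min with compound (10-point, 25 μM top) in Tris pH 8.0 buffer containing BGG and Triton X-100. Substrate turnover ran 45 min at room temperature and was stopped with 10 mM citric acid.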

Row | Compound | IC50
1 | Cc1ccc2c(N)c(C(=O)N[C@H]3COc4cc(N5C[C@@H](N)[C@@](C)(CF)C5)ccc4C3)sc2n1 [Example 660, 3-amino-N-[(3R)-7-[(3S,4S)-4-amino-3-(fluoromethyl)-3-methylpyrrolidin-1-yl]-3,4-dihydro-2H-1-benzopyran-3-yl]-6-methylthieno[2,3-b]pyridine-2-carboxamide] | 0.001 to 0.05 µM
2 | Cc1ccc2c(N)c(C(=O)N[C@H]3COc4cc(N5C[C@@H](N)[C@](C)(CF)C5)ccc4C3)sc2n1 [Example 661, 3-amino-N-[(3R)-7-[(3R,4S)-4-amino-3-(fluoromethyl)-3-methylpyrrolidin-1-yl]-3,4-dihydro-2H-1-benzopyran-3-yl]-6-methylthieno[2,3-b]pyridine-2-carboxamide] | 0.001 to 0.05 µM
3 | CN[C@H]1CN(c2ccc3c(c2)OC[C@H](NC(=O)c2sc4nc(C)ccc4c2N)C3)C[C@@H]1CF [Example 662, 3-amino-N-[(3R)-7-[(3S,4R)-3-(fluoromethyl)-4-(methylamino)pyrrolidin-1-yl]-3,4-dihydro-2H-1-benzopyran-3-yl]-6-methylthieno[2,3-b]pyridine-2-carboxamide] | 0.001 to 0.05 µM
4 | CN[C@@H]1CN(c2ccc3c(c2)OC[C@H](NC(=O)c2sc4nc(C)ccc4c2N)C3)C[C@H]1CF [Example 663, 3-amino-N-[(3R)-7-[(3R,4S)-3-(fluoromethyl)-4-(methylamino)pyrrolidin-1-yl]-3,4-dihydro-2H-1-benzopyran-3-yl]-6-methylthieno[2,3-b]pyridine-2-carboxamide] | 0.001 to 0.05 µM
5 | Cc1ccc2c(N)c(C(=O)N[C@H]3COc4cc(N5C[C@@H]6CCNC[C@@H]65)cc(F)c4C3)sc2n1 [Example 665, 3-amino-N-[(3R)-7-[(1R,6S)-3,8-diazabicyclo[4.2.0]octan-8-yl]-5-fluoro-3,4-dihydro-2H-1-benzopyran-3-yl]-6-methylthieno[2,3-b]pyridine-2-carboxamide] | 0.001 to 0.05 µM
6 | O=C(N[C@H]1COc2cc(N3CCNCC3)ccc2C1)c1ccc(NCc2ccc(Cl)cc2Cl)nc1 [Example 697, 6-{[(2,4-dichlorophenyl)methyl]amino}-N-[(3R)-7-(piperazin-1-yl)-3,4-dihydro-2H-1-benzopyran-3-yl]pyridine-3-carboxamide] | 0.001 to 0.05 µM
7 | O=C(N[C@H]1COc2cc(N3CCNCC3)ccc2C1)c1ccc(NCc2cccc3cn[nH]c23)nc1 [Example 698, 6-{[(1H-indazol-7-yl)methyl]amino}-N-[(3R)-7-(piperazin-1-yl)-3,4-dihydro-2H-1-benzopyran-3-yl]pyridine-3-carboxamide] | 0.2 to 2 µM
8 | O=C(N[C@H]1COc2cc(N3CCNCC3)ccc2C1)c1ccc(NCc2cccc(Cl)c2Cl)nc1 [Example 699, 6-{[(2,3-dichlorophenyl)methyl]amino}-N-[(3R)-7-(piperazin-1-yl)-3,4-dihydro-2H-1-benzopyran-3-yl]pyridine-3-carboxamide] | 0.001 to 0.05 µM
